Source: US20070117842A1, “Polymorph of 4-[3-chloro-4-(cyclopropylaminocarbonyl)aminophenoxy]-7-methoxy-6- quinolinecarboxamide and a process for the preparation of the same” (priority 2003, published 2007)
Values after ≈ are worked out from the molar mass of the structure shown.

Key:
Format in all cases: physicochemical
[1] = Hygroscopicity test by a desiccator method; details: for water content: Karl Fischer method
Protocol: (Hygroscopicity Test by a Desiccator Method) The hygroscopicities of the crystals obtained in Examples 1d and 2d were evaluated by a desiccator method. […] Weighing bottles (in opened caps) were used for containers, and MIR-552 (Sanyo) was used for a storage apparatus. [table] The powder X-ray diffraction analysis was carried out under the following conditions. The water content was measured (by the Karl Fischer method) by using the following apparatus and reagents.

[2] = Hygroscopicity test by microbalance method; details: 25° C.
Protocol: (Hygroscopicity Test by Microbalance Method)
The higroscopicities of the crystals obtained in Examples 1d and 2d were evaluated by microbalance method. An apparatus and conditions employed were as follows.
Apparatus: Integrated microbalance system MB 300W (VTI Co.)
Relative humidity step: 5 to 95 by 5
Equilibrium Criteria: 0.0050 wt % (5 minutes)
Maximum equilibrium time: 120 minutes
The results of measuring the higroscopicities of the crystals obtained in Examples 1d and 2d by microbalance method are shown in FIGS. 13 and 14, respectively. As is seen from the results shown in these figures, within the range of 5-95% of relative humidity, the polymorph (A) gave a weight change of 1% and the polymorph (B) gave that of 1.5%.

[3] = Solid stability test (1 month storage; appearance, water content, HPLC purity and residual ratio, powder X-ray diffraction); details: for impurity / remaining percent: HPLC; for water content: Karl Fischer method
Protocol: (Solid Stability Test) The solid stabilities of the crystal obtained in Examples 1d and 2d were evaluated. […] The water content measurement and the powder X-ray diffraction measurement were carried out by the same method as described in the hygroscopicity test by the dessiccator method. Further, the purity test and the residual ratio (percent) measurement by HPLC were carried out by the same method as described above, except for the condition that the column temperature was 35° C. In this connection, the residual ratio (percent) (measurement by HPLC) was defined as stated bellow by using the crystal stored under the condition C as the standard and its solution as the standard solution. Remaining percent (%)=[(Peak area of the sample solution)×(Weighed amount of the standard: in terms of a dehydrate (mg))]×100/[(Peak area of the standard solution)×(Weighed amount of the sample: in terms of a dehydrate (mg))] [table]

[4] = Solubility test (pH 3, Britton Robinson buffer); details: for pH of the filtrate: solubility test
Protocol: (Solubility Test) The solubilities (pH 3) of the crystals obtained in Examples 1d and 2d were evaluated by the following method. About 3 mg of the crystals obtained in Examples 1d and 2d were weighed and each of them was put in a 10 mL screw-capped transparent test tube. 5 mL of a buffer solution (Britton Robinson buffer, pH 3.091, ionic strength I=0.3) was added to each of the test tubes to prepare the test solutions. The test tubes were wrapped with aluminum foil to shield from light, and shaken by a shaker (MS-1 Iuchi Seieido) in the following conditions. Temperature: 25-26° C. (a temperature in a laboratory) Shaking frequency: 150 times/minute Shaking time: 3 hours and 5 hours Respective sample solutions after shaking were filtered ([…], Sample LCR13-LG, Millipore Co.), and each 1 mL of the initial filtrate was discarded. Each of accurately pipetted 1 mL of the filtrates was put in a 10 mL test tube, to which accurately pipetted 1 mL of a mixed solution of water/acetonitrile (1:1 (v/v)) was added to prepare a solution for the HPLC analysis. The HPLC conditions were as follows. A standard solution for the HPLC analysis were prepared as follows. About 10 mg of the crystals obtained in Example 2d was accurately weighed, to which a mixed solution of water/acetonitrile/ammonium acetate (100:100:0.1, v/v/w) was added to give accurate 100 mL to prepare a stock standard solution. Accurately pipetted 5 mL of the stock control solution was added with a mixed solution of water/acetonitrile/ammonium acetate (100:100:0.1, v/v/w) to give accurate 25 mL to prepare the standard solution for the HPLC analysis. Regarding a blank solution, a mixed solution of water/acetonitrile/ammonium acetate (100:100:0.1, v/v/w) was used. The standard solution and respective filtrates were analyzed by HPLC to measure concentrations (mg/mL) of 4-(3-chloro-4-(cyclopropylaminocarbonyl)aminophenoxy)-7-methoxy-6-quinolinecarboxamide in respective filtrates according to the following equation. Concentration (mg/mL)=(Concentration in the standard solution, mg/mL)×[(Peak area in each filtrate)×2/(Peak area in the standard solution)] As is evident from the results, there was no significant difference in the solubility at pH 3 between the polymorphs (A) and (B).

[5] = Crystal transition between polymorphs in heated suspension; details: 60° C., 3 hours, listed as polymorph (A)
Protocol: These suspensions were filtered to collect 4-(3-chloro-4-(cyclopropylaminocarbonyl)aminophenoxy)-7-methoxy-6-quinolinecarboxamide (184 to 266 mg).
These suspensions were filtered to collect 4-(3-chloro-4-(cyclopropylaminocarbonyl)aminophenoxy)-7-methoxy-6-quinolinecarboxamide (141 to 256 mg).

[6] = condition A: 25° C., 75% relative humidity, stored 1 week
[7] = condition B: 25° C., 93% relative humidity, stored 1 week
[8] = desiccator method, 25° C., 75% or 93% relative humidity, 1 week
[9] = condition C: −20° C., brown screw vial, closed, 1 month
[10] = condition D: 25° C., 1000lx, shading with aluminum foil, quartz tube, closed, 1 month
[11] = condition E: 25° C., 1000lx, quartz tube, closed, 1 month
[12] = condition F: 40° C., 75% RH, brown screw vial, open, 1 month
[13] = condition G: 60° C., brown screw vial, closed, 1 month

appearance [1, 6]: light brown
water content [1, 6]: 1.0 wt %
appearance [1, 7]: light brown
water content [1, 7]: 1.2 wt %
crystal transition [1, 8]: no perceivable crystal transition
hygroscopicity [1, 8]: no perceivable hygroscopicitiy
appearance ([1]; prior to storage): light brown
water content ([1]; prior to storage): 1.0 wt %
hygroscopicity ([2]; microbalance method, 5-95% relative humidity): no perceivable hygroscopisity
weight change ([2]; within the range of 5-95% of relative humidity, listed as polymorph (A)): 1%
appearance [3, 9]: light brown
impurity [3, 9]: 2.66%
remaining percent ([3]; condition C: −20° C., brown screw vial, closed, 1 month, condition C is the standard): (100) %
water content [3, 9]: 1.0 wt %
appearance [3, 10]: light brown
impurity [3, 10]: 2.67%
remaining percent ([3]; condition D: 25° C., 1000lx, shading with aluminum foil, quartz tube, closed, 1 month, vs condition C standard): 103.3%
water content [3, 10]: 0.7 wt %
appearance [3, 11]: light brown
impurity [3, 11]: 2.68%
remaining percent ([3]; condition E: 25° C., 1000lx, quartz tube, closed, 1 month, vs condition C standard): 104.3%
water content [3, 11]: 0.8 wt %
appearance [3, 12]: light brown
impurity [3, 12]: 2.65%
remaining percent ([3]; condition F: 40° C., 75% RH, brown screw vial, open, 1 month, vs condition C standard): 102.3%
water content [3, 12]: 1.2 wt %
appearance [3, 13]: light brown
impurity [3, 13]: 2.65%
remaining percent ([3]; condition G: 60° C., brown screw vial, closed, 1 month, vs condition C standard): 104.4%
water content [3, 13]: 0.5 wt %
appearance ([3]; prior to storage): light brown
impurity ([3]; prior to storage): 2.71%
water content ([3]; prior to storage): 1.0 wt %
change on storage (solid stability) ([3]; stored for 1 month, any storage conditions): no change was observed
solubility at 3 h ([4]; Britton Robinson buffer, 25 °C, pH 3, aqueous buffer, thermodynamic from solid, pH 3 Britton Robinson buffer, 25-26° C., shaking time 3 hours, read-out: solubility (concentration in filtrate)): 77 µg/mL (≈ 180 µM)
solubility at 5 h ([4]; Britton Robinson buffer, 25 °C, pH 3, aqueous buffer, thermodynamic from solid, pH 3 Britton Robinson buffer, 25-26° C., shaking time 5 hours, read-out: solubility (concentration in filtrate)): 71 µg/mL (≈ 166 µM)
pH of the filtrate ([4]; shaking time 3 hours): 3.123
pH of the filtrate ([4]; shaking time 5 hours): 3.107
dissolution in DMSO ([5]; 300 mg in DMSO (1.7 mL), without 33% acetone-water): most of the polymorph (A) dissolved
Compound: COc1cc2nccc(Oc3ccc(NC(=O)NC4CC4)c(Cl)c3)c2cc1C(N)=O [Example 1d, 4-(3-chloro-4-(cyclopropylaminocarbonyl)aminophenoxy)-7-methoxy-6-quinolinecarboxamide]
crystal form after suspension ([5]; 300 mg in DMSO (1.7 mL) and 33% (v/v) acetone-water (0.17, 0.34, 0.51 or 0.85 mL)): crystal transition to the polymorph (B) occurred in every case
